Among the test systems are CCRF-CEM leukemia; MALME-3M melanoma; OVCAR-3 ovarian; RPMI-8226 leukemia; SF-295 CNS; SK-MEL-2 melanoma; SK-MEL-28 melanoma; SK-OV-3 ovarian; SNB-19 CNS; UACC-62 melanoma.
Holding throughout (assay): growth of human tumour cells (NCI), 48 h

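96-well plates; 48 h exposure; 5 concentrations. Endpoints by linear interpolation between flanking doses. Not reached: highest tested concentration assigned. GI50 = concentration required for 50% inhibition of growth. TGI: concentration producing complete growth inhibition.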

As to `O=C1/C(=C/c2ccccc2)CN(C(=O)/C=C/c2ccccc2)C/C1=C\c1ccccc1`, the TGI in the test with CCRF-CEM leukemia was 9 µM; in the test with MALME-3M melanoma it was 34.1 µM; in the test on OVCAR-3 ovarian, 24.7 µM; in the test with RPMI-8226 leukemia, 10.8 µM; in the test on SF-295 CNS, 17 µM; with SK-MEL-2 melanoma it was 52 µM. The TGI worked out at 21.4 µM in the test with SK-MEL-28 melanoma, 57.9 µM in the test with SK-OV-3 ovarian, 25.9 µM in the test on SNB-19 CNS and 16.2 µM in the test with UACC-62 melanoma.

With `Nc1ncnc2c1ncn2C1(CO)OC(CO)C(O)C1O` (stereo not drawn), the TGI with CCRF-CEM leukemia, in the test on MALME-3M melanoma, in the test on RPMI-8226 leukemia, in the test on SF-295 CNS, in the test with SK-MEL-2 melanoma and in the test on SK-MEL-28 melanoma was greater than 100 µM each time. Moreover, the TGI in the test with SK-OV-3 ovarian and with SNB-19 CNS was greater than 100 µM in each case.

As to `O=C1CC2=CCCC2O1` (stereo not drawn), the TGI with CCRF-CEM leukemia, in the test with MALME-3M melanoma, in the test with OVCAR-3 ovarian, with RPMI-8226 leukemia, with SF-295 CNS and in the test with SK-MEL-2 melanoma was greater than 100 µM each time. The TGI in the test with SK-MEL-28 melanoma, in the test on SK-OV-3 ovarian, with SNB-19 CNS and with UACC-62 melanoma was greater than 100 µM throughout.

With `Nc1ccccc1SC(CC(=O)c1ccccc1)c1c(Cl)cccc1Cl` (stereo not drawn), the GI50 with CCRF-CEM leukemia was 2.67 µM; with MALME-3M melanoma, 10.8 µM; in the test with OVCAR-3 ovarian, 3.4 µM; with RPMI-8226 leukemia, 1.9 µM; with SF-295 CNS it was 5.59 µM; in the test with SK-MEL-2 melanoma it was 6.33 µM. Besides, the GI50 with SK-MEL-28 melanoma was 11.6 µM; in the test with SK-OV-3 ovarian, 12.1 µM; in the test with SNB-19 CNS, 10.5 µM. Besides, the TGI with CCRF-CEM leukemia turned out to be 8.49 µM; in the test on MALME-3M melanoma, 25.3 µM; in the test with OVCAR-3 ovarian, 12 µM; with RPMI-8226 leukemia, 5.35 µM; in the test with SF-295 CNS, 19.1 µM; with SK-MEL-2 melanoma it was 18.2 µM. Also, the TGI in the test on SK-MEL-28 melanoma came out at 23.9 µM; with SK-OV-3 ovarian, 28.8 µM; with SNB-19 CNS, 22.9 µM.

As for `Cc1ccc(C)c(NC(=O)C(=O)C(C2C(C)CC(=O)C2CC(=O)O)[N+](=O)[O-])c1` (stereo not drawn), the TGI in the test with CCRF-CEM leukemia, with MALME-3M melanoma, in the test on OVCAR-3 ovarian, with RPMI-8226 leukemia, in the test with SF-295 CNS and in the test with SK-MEL-2 melanoma was greater than 100 µM throughout. In addition, the TGI with SK-MEL-28 melanoma, in the test on SK-OV-3 ovarian, with SNB-19 CNS and in the test on UACC-62 melanoma was greater than 100 µM throughout.

As to `O=C(Nc1cccc2[nH]c(C(F)(F)F)nc12)c1ccc(Br)cc1F`, the GI50 in the test with CCRF-CEM leukemia was 3.23 µM; with MALME-3M melanoma, 2.86 µM; in the test on OVCAR-3 ovarian, 3.62 µM; in the test on RPMI-8226 leukemia it was 2.44 µM; with SF-295 CNS, 2.94 µM; in the test on SK-MEL-2 melanoma, 0.32 µM. The GI50 in the test with SK-MEL-28 melanoma is 4.76 µM; with SK-OV-3 ovarian it was 2.64 µM; in the test on SNB-19 CNS, 3.79 µM; with UACC-62 melanoma, 3.26 µM. In addition, the TGI was 20.1 µM with CCRF-CEM leukemia; 6.82 µM in the test on MALME-3M melanoma; 16.8 µM with OVCAR-3 ovarian; 7.9 µM with RPMI-8226 leukemia; 10.3 µM with SF-295 CNS; 2.12 µM with SK-MEL-2 melanoma. Further, the TGI with SK-MEL-28 melanoma was determined as 16.4 µM; in the test on SK-OV-3 ovarian, 9.27 µM; in the test with SNB-19 CNS it was 14.6 µM; with UACC-62 melanoma it was 13.5 µM.

`C=CCN=C1NC(=O)C(CC(=O)Nc2ccc([N+](=O)[O-])cc2[N+](=O)[O-])S1` (stereo not drawn): the TGI with CCRF-CEM leukemia, in the test with MALME-3M melanoma, in the test with OVCAR-3 ovarian, in the test with SF-295 CNS, in the test with SK-MEL-2 melanoma and with SK-MEL-28 melanoma was greater than 100 µM throughout. Also, the TGI in the test with SK-OV-3 ovarian, in the test on SNB-19 CNS and in the test on UACC-62 melanoma was greater than 100 µM throughout.

Take `O=S(=O)(c1ccccc1)C1(C2(S(=O)(=O)c3ccccc3)CCN=N2)CCN=N1` (stereo not drawn): the TGI in the test with CCRF-CEM leukemia, in the test on MALME-3M melanoma, in the test with OVCAR-3 ovarian, with RPMI-8226 leukemia, in the test with SF-295 CNS and in the test on SK-MEL-2 melanoma was greater than 100 µM in each case. Further, the TGI with SK-MEL-28 melanoma, in the test with SK-OV-3 ovarian and in the test with SNB-19 CNS was greater than 100 µM throughout.

In the case of `Cc1nsc2cc(Cl)n(C)c(=O)c12`, the TGI in the test on CCRF-CEM leukemia, in the test with MALME-3M melanoma, in the test on OVCAR-3 ovarian, with RPMI-8226 leukemia, in the test with SK-MEL-2 melanoma and in the test with SK-MEL-28 melanoma was greater than 100 µM throughout. Moreover, the TGI in the test with SK-OV-3 ovarian and in the test with SNB-19 CNS was greater than 100 µM each time.

On to `CC(C)(C)c1ccc(OCCCCCCCN2CCNCC2)cc1`, for which the GI50 in the test with CCRF-CEM leukemia is 1.62 µM; with MALME-3M melanoma, 1.6 µM; with OVCAR-3 ovarian it was 1.63 µM; with RPMI-8226 leukemia it was 1.83 µM; in the test on SF-295 CNS it was 1.84 µM; in the test on SK-MEL-2 melanoma it was 1.74 µM. For the same molecule, the GI50 in the test on SK-OV-3 ovarian was 1.82 µM; with SNB-19 CNS, 3.42 µM; in the test on UACC-62 melanoma, 1.88 µM. Also, the TGI with CCRF-CEM leukemia came to 4.1 µM; in the test with MALME-3M melanoma, 3.17 µM; in the test on OVCAR-3 ovarian it was 3.12 µM; in the test with RPMI-8226 leukemia, 4.25 µM; in the test with SF-295 CNS it was 3.78 µM; in the test on SK-MEL-2 melanoma, 3.47 µM. Besides, the figures for the TGI in the test on SK-OV-3 ovarian, with SNB-19 CNS and in the test on UACC-62 melanoma were 3.92 µM, 12.8 µM and 3.6 µM, respectively.

With `CCCCCCCCCCCCNC(=S)OCCCC`, the TGI was greater than 100 µM in the test with CCRF-CEM leukemia; greater than 100 µM in the test on MALME-3M melanoma; 51 µM in the test with RPMI-8226 leukemia; greater than 100 µM with SF-295 CNS; 62.2 µM in the test on SK-MEL-2 melanoma; greater than 100 µM in the test on SK-MEL-28 melanoma. The TGI in the test on SK-OV-3 ovarian, in the test on SNB-19 CNS and in the test on UACC-62 melanoma was greater than 100 µM throughout.

For the molecule `O=C(O)C(Cc1ccc(O)cc1)N=Cc1nc(-c2ccccc2)oc1O` (stereo not drawn), the TGI in the test on CCRF-CEM leukemia, in the test on MALME-3M melanoma, with OVCAR-3 ovarian, in the test on RPMI-8226 leukemia, with SF-295 CNS and in the test on SK-MEL-2 melanoma was greater than 100 µM throughout. Further, the TGI with SK-MEL-28 melanoma, in the test on SK-OV-3 ovarian and in the test on SNB-19 CNS was greater than 100 µM in each case.

The values above are taken from PubChem BioAssay (NCI).
